Results reported in patent publication US9598720B2, “Monomeric and polymeric linkers useful for conjugating biological molecules and other substances” (DAKO Denmark A/S, priority 2005, dated 2017).
Entries after “also recorded” stand apart in the source; their conditions may differ.

test system: repetitive DNA sequence in the centromere of the human chromosome 17; assay: FISH on metaphases with fluorescein labeled PNAs, green signal compared with a red fluorescent PNA; settings: visual and Leica QFISH Measure Intensity
Source text: The PNA sequence was directed at a repetitive DNA sequence in the centromere of the human chromosome 17, allowing the PNAs to be compared by FISH on metaphases. To erase specimen variation, each of the PNAs was mixed with a red fluorescent PNA directed at the same centromere region on chromosome 17, and the intensity of the red and green signals compared visually and quantified by the “Measure Intensity” function in the Leica QFISH program.

Substance	intensity of the green signal
H-Lys(Flu)-L30-AACGGGATAACTGCACCT-L30-Lys(Flu)-L90-Lys(Flu)-L90-Lys(Flu)-NH2 (all peptide nucleic acid (PNA); PNA with Lys(Flu) fluorescein and L30/L90 linkers at the termini, C-terminal amide, further chemistry not fully specified) [Linker derivative 16]	more intense signals; also recorded: most intense
((FlU-L60)2-Lys-L60)2-LyS-L30-AACGGGATAACTGCACCT-NH2 (all peptide nucleic acid (PNA); PNA with Lys(Flu) fluorescein and L30/L90 linkers at the termini, C-terminal amide, further chemistry not fully specified) [Linker derivative 19]	more intense signals
Ac-Lys(Flu)-L30-AACGGGATAACTGCACCT-L30-Lys(Flu)-L90-Lys(Flu)-L90-Lys(Flu)-NH2 (all peptide nucleic acid (PNA); PNA with Lys(Flu) fluorescein and L30/L90 linkers at the termini, C-terminal amide, further chemistry not fully specified) [Linker derivative 15]	more intense signals
